According to PubChem BioAssay AID330 (DTP/NCI, 2004):
“And” between values parts separate entries of the source, which are not always exact repeats. Equal values may be shown once. Inconclusive results and toxic doses are left out.

System: P388 leukemia ip, CD2F1 mice, survival T/C
Assay: NCI In Vivo Anticancer Drug Screen. Data for tumor model P388 Leukemia (intraperitoneal) in CD2F1 (CDF1) mice
Conditions: endpoint: median survival time, higher = longer survival
How it was run: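 Mice carrying the transplanted tumor received test compound or vehicle. Survival was recorded in each group, and the value is the treated-group measurement divided by that of the vehicle-treated control group.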

[1] = dose: 60.0 mg/kg/injection, schedule: Q01DX005 (ip), vehicle: saline with Tween-80
[2] = dose: 100.0 mg/kg/injection, schedule: Q04DX002 (ip), vehicle: saline
[3] = dose: 50.0 mg/kg/injection, schedule: Q01DX005 (ip), vehicle: Klucel (hydroxypropylcellulose) (HPC)
[4] = dose: 100.0 mg/kg/injection, schedule: Q01DX005 (ip), vehicle: Klucel (hydroxypropylcellulose) (HPC)
[5] = dose: 50.0 mg/kg/injection, schedule: Q01DX009 (ip), vehicle: saline with Tween-80
[6] = dose: 100.0 mg/kg/injection, schedule: Q01DX009 (ip), vehicle: saline with Tween-80
[7] = dose: 200.0 mg/kg/injection, schedule: Q01DX009 (ip), vehicle: saline with Tween-80

COc1cccc(Sc2ccc([N+](=O)[O-])c3no[n+]([O-])c23)c1
T/C (dose: 0.93 mg/kg/injection, schedule: Q01DX005 (ip), vehicle: saline with Tween-80): 100 % of control | T/C (dose: 0.93 mg/kg/injection, schedule: Q01DX009 (ip), vehicle: saline with Tween-80): 157 % of control | T/C (dose: 1.56 mg/kg/injection, schedule: Q01DX005 (ip), vehicle: saline with Tween-80): 100 % of control and 97 % of control | T/C (dose: 1.87 mg/kg/injection, schedule: Q01DX005 (ip), vehicle: saline with Tween-80): 99 % of control | T/C (dose: 1.87 mg/kg/injection, schedule: Q01DX009 (ip), vehicle: saline with Tween-80): 163 % of control | T/C (dose: 3.12 mg/kg/injection, schedule: Q01DX005 (ip), vehicle: saline with Tween-80): 100 % of control and 102 % of control | T/C (dose: 3.75 mg/kg/injection, schedule: Q01DX005 (ip), vehicle: saline with Tween-80): 99 % of control | T/C (dose: 3.75 mg/kg/injection, schedule: Q01DX009 (ip), vehicle: saline with Tween-80): 99 % of control | T/C (dose: 6.25 mg/kg/injection, schedule: Q01DX005 (ip), vehicle: saline with Tween-80): 100 % of control and 106 % of control | T/C (dose: 7.5 mg/kg/injection, schedule: Q01DX005 (ip), vehicle: saline with Tween-80): 102 % of control | T/C (dose: 12.5 mg/kg/injection, schedule: Q01DX005 (ip), vehicle: saline with Tween-80): 102 % of control and 106 % of control | T/C (dose: 15.0 mg/kg/injection, schedule: Q01DX005 (ip), vehicle: saline with Tween-80): 106 % of control | T/C (dose: 15.0 mg/kg/injection, schedule: Q01DX009 (ip), vehicle: Klucel (hydroxypropylcellulose) (HPC)): 184 % of control | T/C (dose: 15.0 mg/kg/injection, schedule: Q01DX009 (ip), vehicle: saline with Tween-80): 107 % of control | T/C (dose: 25.0 mg/kg/injection, schedule: Q01DX005 (ip), vehicle: saline with Tween-80): 108 % of control and 111 % of control | T/C (dose: 30.0 mg/kg/injection, schedule: Q01DX005 (ip), vehicle: saline with Tween-80): 109 % of control | T/C (dose: 30.0 mg/kg/injection, schedule: Q01DX009 (ip), vehicle: Klucel (hydroxypropylcellulose) (HPC)): 166 % of control | T/C [1]: 110 % of control | T/C (dose: 60.0 mg/kg/injection, schedule: Q01DX009 (ip), vehicle: Klucel (hydroxypropylcellulose) (HPC)): 88 % of control

CCOC(=O)C(Cc1ccc(N(CCCl)CCCl)cc1)NC(=O)C(NC(C)=O)C(C)C (configuration not stated)
T/C (dose: 5.0 mg/kg/injection, schedule: Q04DX003 (ip), vehicle: water): 123 % of control | T/C (dose: 20.0 mg/kg/injection, schedule: Q04DX003 (ip), vehicle: water): 160 % of control | T/C (dose: 40.0 mg/kg/injection, schedule: Q04DX003 (ip), vehicle: water): 241 % of control

O=C(O)N1CCc2c(sc3ccccc23)C1
T/C (dose: 12.5 mg/kg/injection, schedule: Q01DX001 (ip), vehicle: Klucel (hydroxypropylcellulose) (HPC)): 103 % of control | T/C (dose: 25.0 mg/kg/injection, schedule: Q01DX001 (ip), vehicle: Klucel (hydroxypropylcellulose) (HPC)): 98 % of control | T/C (dose: 50.0 mg/kg/injection, schedule: Q01DX001 (ip), vehicle: Klucel (hydroxypropylcellulose) (HPC)): 100 % of control and 104 % of control

O=C(NO)C1CCCCC12OCCO2 (configuration not stated)
T/C [2]: 98 % of control | T/C (dose: 200.0 mg/kg/injection, schedule: Q04DX002 (ip), vehicle: saline): 101 % of control | T/C (dose: 400.0 mg/kg/injection, schedule: Q04DX002 (ip), vehicle: saline): 101 % of control

O=C(N/C(=C/c1ccccc1)C(=O)N1CCN(C(=O)/C(=C\c2ccccc2)NC(=O)c2ccccc2)CC1)c1ccccc1
T/C (dose: 50.0 mg/kg/injection, schedule: Q01DX005 (ip), vehicle: saline with Tween-80): 93 % of control | T/C (dose: 100.0 mg/kg/injection, schedule: Q01DX005 (ip), vehicle: saline with Tween-80): 92 % of control | T/C (dose: 200.0 mg/kg/injection, schedule: Q01DX005 (ip), vehicle: saline with Tween-80): 93 % of control

Cc1nn(C(=O)c2ccncc2)c(C)c1N=Nc1ccc(S(=O)(=O)N=C(N)N)cc1
T/C (dose: 50.0 mg/kg/injection, schedule: Q01DX009 (ip), vehicle: Klucel (hydroxypropylcellulose) (HPC)): 97 % of control | T/C (dose: 100.0 mg/kg/injection, schedule: Q01DX009 (ip), vehicle: Klucel (hydroxypropylcellulose) (HPC)): 95 % of control | T/C (dose: 200.0 mg/kg/injection, schedule: Q01DX009 (ip), vehicle: Klucel (hydroxypropylcellulose) (HPC)): 100 % of control

O=C(OCc1ccccc1)C(Cc1c[nH]c2ccccc12)n1cnc2ccccc2c1=O (configuration not stated)
T/C (dose: 12.5 mg/kg/injection, schedule: Q01DX005 (ip), vehicle: Klucel (hydroxypropylcellulose) (HPC)): 97 % of control | T/C (dose: 25.0 mg/kg/injection, schedule: Q01DX005 (ip), vehicle: Klucel (hydroxypropylcellulose) (HPC)): 97 % of control | T/C [3]: 96 % of control

CCN1CCCc2cc3c(C(F)(F)F)cc(=O)oc3cc21
T/C [3]: 97 % of control | T/C [4]: 106 % of control | T/C (dose: 200.0 mg/kg/injection, schedule: Q01DX005 (ip), vehicle: Klucel (hydroxypropylcellulose) (HPC)): 97 % of control

CC1(c2ccc([N+](=O)[O-])cc2)OC(=O)C(=Cc2ccc([N+](=O)[O-])s2)C(=O)O1 (configuration not stated)
T/C [5]: 103 % of control | T/C [6]: 96 % of control | T/C [7]: 103 % of control

OCC1OC(n2cnc3c(Cl)ncnc32)CC1O (configuration not stated)
T/C (dose: 50.0 mg/kg/injection, schedule: Q01DX005 (ip), vehicle: saline): 94 % of control | T/C (dose: 100.0 mg/kg/injection, schedule: Q01DX005 (ip), vehicle: saline): 92 % of control | T/C (dose: 200.0 mg/kg/injection, schedule: Q01DX005 (ip), vehicle: saline): 102 % of control

O=C(c1ccccc1)c1nonc1C(=O)c1ccccc1
T/C (dose: 100.0 mg/kg/injection, schedule: Q01DX001 (ip), vehicle: saline with Tween-80): 95 % of control | T/C (dose: 200.0 mg/kg/injection, schedule: Q01DX001 (ip), vehicle: saline with Tween-80): 104 % of control | T/C (dose: 400.0 mg/kg/injection, schedule: Q01DX001 (ip), vehicle: saline with Tween-80): 95 % of control

CNS(=O)(=O)O
T/C (dose: 12.5 mg/kg/injection, schedule: Q01DX009 (ip), vehicle: saline): 86 % of control | T/C (dose: 25.0 mg/kg/injection, schedule: Q01DX009 (ip), vehicle: saline): 104 % of control | T/C (dose: 50.0 mg/kg/injection, schedule: Q01DX009 (ip), vehicle: saline): 105 % of control | T/C (dose: 100.0 mg/kg/injection, schedule: Q01DX009 (ip), vehicle: saline): 100 % of control

C/C(=N\O)c1cc(Br)cc([N+](=O)[O-])c1O
T/C [3]: 100 % of control | T/C [4]: 94 % of control

CC(C)(C)N=C(CC(=NC(C)(C)C)Nc1ccccc1Cl)Nc1ccccc1Cl
T/C [5]: 91 % of control | T/C [6]: 92 % of control | T/C [7]: 86 % of control

CC(=O)c1c(C)n(C)c2c1nnc1ccccc12
T/C (dose: 60.0 mg/kg/injection, schedule: Q01DX005 (ip), vehicle: Klucel (hydroxypropylcellulose) (HPC)): 101 % of control | T/C (dose: 120.0 mg/kg/injection, schedule: Q01DX005 (ip), vehicle: Klucel (hydroxypropylcellulose) (HPC)): 97 % of control | T/C (dose: 240.0 mg/kg/injection, schedule: Q01DX005 (ip), vehicle: Klucel (hydroxypropylcellulose) (HPC)): 99 % of control

CCOC(=O)c1nc2cc(C)c(C)cc2[nH]c1=O
T/C (dose: 100.0 mg/kg/injection, schedule: Q04DX003 (ip), vehicle: saline with Tween-80): 95 % of control | T/C (dose: 200.0 mg/kg/injection, schedule: Q04DX003 (ip), vehicle: saline with Tween-80): 100 % of control | T/C (dose: 400.0 mg/kg/injection, schedule: Q04DX003 (ip), vehicle: saline with Tween-80): 104 % of control

CC(C)C[N+]1(Cc2ccc(Cl)c(Cl)c2)CCOCC1
T/C (dose: 100.0 mg/kg/injection, schedule: Q04DX002 (ip), vehicle: saline with Tween-80): 99 % of control | T/C (dose: 200.0 mg/kg/injection, schedule: Q04DX002 (ip), vehicle: saline with Tween-80): 108 % of control

N#CC(C(=O)C(=O)C(C#N)c1nc2ccccc2s1)c1nc2ccccc2s1 (configuration not stated)
T/C [1]: 92 % of control | T/C (dose: 120.0 mg/kg/injection, schedule: Q01DX005 (ip), vehicle: saline with Tween-80): 101 % of control | T/C (dose: 240.0 mg/kg/injection, schedule: Q01DX005 (ip), vehicle: saline with Tween-80): 103 % of control

CCCCCCCCCCCC(=O)OCCN(C=O)C[n+]1ccccc1
T/C (dose: 25.0 mg/kg/injection, schedule: Q04DX002 (ip), vehicle: saline): 98 % of control | T/C (dose: 50.0 mg/kg/injection, schedule: Q04DX002 (ip), vehicle: saline): 96 % of control | T/C [2]: 91 % of control
